As a reminder, the logD is the decadic logarithm of the distribution of all forms, ionised or not, between an organic phase and buffer at a given pH. High values mean a more lipophilic compound, low ones a more hydrophilic compound.

This series can be described thus: method code SF, from DOI: 10.1246/bcsj.55.1489. Conditions: pH 7.0.
Consider `COc1nc(C)cc(-n2[nH]c(C)cc2=O)n1`, for which the logD stood at 1.03. For `COc1cc(-n2nc(C)cc2OC)ncn1`, the logD was 1.53. Next, `COc1cc(C)nn1-c1ccncn1`: 0.5; `COc1ccnc(-n2nc(C)cc2OC)n1`: 1.01; `COc1cc(C)nn1-c1nc(C)cc(C)n1`: 0.73. As to `Cc1cc(C)nc(-n2c(C)cc(=O)n2C)n1`, the logD was 0.51. For `COc1cc(-n2c(=O)cc(C)n2C)ncn1`, the logD was determined as 0.3. The figure for `COc1cc(-n2c(=O)cc(C)n2C)nc(C)n1` is 0.7; for `Cc1cc(-n2c(=O)cc(C)n2C)nc(C)n1` it is 0.24.

Compound `COc1cc(C)n(-c2nc(C)cc(C)n2)n1` yielded a logD of 1.82. Next, `COc1cc(-n2nc(C)cc2OC)nc(OC)n1`: 1.86. The figure for `COc1cc(C)n(-c2ccncn2)n1` is 2.21; for `COc1cc(-n2c(C)cc(=O)n2C)nc(C)n1` it is 0.38.

The values are drawn from the SangsterLogP compilation.
